Laboratory results as given in article PMC7588595, “Small-molecule active pharmaceutical ingredients of approved cancer therapeutics inhibit human aspartate/asparagine-β-hydroxylase” (Bioorganic & Medicinal Chemistry, 2020).
Structures can show the parent of a compound that is named as a salt.

Molecular target: T1, human AspH (His6-AspH315–758) (Homo sapiens, UniProt Q12797)
T1 construct: N-Terminally His6-tagged human AspH315–758 (His6-AspH315–758) was produced in Escherichia coli BL21 (DE3) cells; made in house; host or cells: Escherichia coli BL21 (DE3), pET-28a(+) vector
T1 sequence (Q12797 315-758): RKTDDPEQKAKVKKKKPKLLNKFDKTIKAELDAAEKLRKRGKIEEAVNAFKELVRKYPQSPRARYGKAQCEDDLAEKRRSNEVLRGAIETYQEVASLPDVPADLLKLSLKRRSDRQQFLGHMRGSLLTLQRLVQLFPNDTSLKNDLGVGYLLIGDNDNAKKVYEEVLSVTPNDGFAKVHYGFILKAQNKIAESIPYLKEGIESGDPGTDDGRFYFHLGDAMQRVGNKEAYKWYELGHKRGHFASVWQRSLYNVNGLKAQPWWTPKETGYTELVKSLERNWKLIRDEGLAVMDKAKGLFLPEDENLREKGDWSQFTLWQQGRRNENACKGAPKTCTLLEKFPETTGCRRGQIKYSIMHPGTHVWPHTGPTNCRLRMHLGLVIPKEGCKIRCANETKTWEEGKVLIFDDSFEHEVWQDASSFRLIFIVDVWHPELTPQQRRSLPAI
Assay: SPE-MS AspH inhibition assay (hFX-CP101-119 substrate hydroxylation)
Assay type: biochemical
Conditions: AspH-inhibitor screening; for Plate 1 (% inhibition): 384-well Plate 1; for Plate 1 (% conversion): 384-well Plate 1, substrate conversion; for Plate 1-duplicate (% conversion): substrate conversion

Row | Compound | Plate 1 (% inhibition) | Plate 1 (% conversion) | Plate 1-duplicate (% inhibition) | Plate 1-duplicate (% conversion)
1 | CCn1c(-c2nonc2N)nc2cnc(Oc3cccc(NC(=O)c4ccc(OCCN5CCOCC5)cc4)c3)cc21 [GSK 269962] | -27.40% | 62.40% | -34.23% | 69.02%
2 | C/C(=C\c1csc(C)n1)[C@@H]1C[C@@H]2O[C@]2(C)CCC[C@H](C)[C@H](O)[C@@H](C)C(=O)C(C)(C)[C@@H](O)CC(=O)N1 [Ixabepilone] | -1.86% | 50.61% | -1.35% | 52.71%
3 | Nc1nc2[nH]cc(CCc3ccc(C(=O)N[C@@H](CCC(=O)[O-])C(=O)[O-])cc3)c2c(=O)[nH]1.O.O.O.O.O.O.O.[Na+].[Na+] [Pemetrexed, Disodium salt, Heptahydrate] | 6.49% | 46.75% | 6.63% | 48.75%
4 | CC[C@@H]1C(=O)N(C)c2cnc(Nc3ccc(C(=O)N[C@H]4CC[C@H](N5CCN(CC6CC6)CC5)CC4)cc3OC)nc2N1C(C)C [BI 6727_Volasertib] | -9.00% | 53.91% | -19.71% | 61.82%
5 | O=C1CN2Cc3c(ccc(Cl)c3Cl)N=C2N1 [Anagrelide] | 0.57% | 49.49% | 0.27% | 51.91%
6 | C/C(=C\c1csc(C)n1)[C@@H]1C[C@@H]2O[C@]2(C)CCC[C@H](C)[C@H](O)[C@@H](C)C(=O)C(C)(C)[C@@H](O)CC(=O)O1 [Epothilone B (Patupilone)] | -5.33% | 52.21% | -7.34% | 55.68%
7 | O=C(O)c1ccc(-c2c[nH]c3ncc(-c4ccccc4)cc23)cc1C1CCCC1 [GSK 650394] | 57.76% | 23.08% | 56.10% | 24.22%
8 | CO[C@H]1C[C@@H]2CC[C@@H](C)[C@@](O)(O2)C(=O)C(=O)N2CCCC[C@H]2C(=O)O[C@H]([C@H](C)C[C@@H]2CC[C@@H](OC(=O)C(C)(CO)CO)[C@H](OC)C2)CC(=O)[C@H](C)/C=C(\C)[C@@H](O)[C@@H](OC)C(=O)[C@H](C)C[C@H](C)/C=C/C=C/C=C/1C [Temsirolimus] | 35.77% | 33.23% | 28.92% | 37.70%
9 | CN(C)C/C=C/C(=O)Nc1cc2c(Nc3ccc(F)c(Cl)c3)ncnc2cc1O[C@H]1CCOC1 [BIBW2992 (Tovok)_Afatinib] | -24.14% | 60.90% | -42.32% | 73.03%
10 | Cc1c(CN2CCN(C(=O)[C@H](C)O)CC2)sc2c(N3CCOCC3)nc(-c3cnc(N)nc3)nc12 [GDC-0980] | 2.44% | 48.62% | 1.54% | 51.28%
11 | CN[C@@H](C)C(=O)N[C@H]1CN(C(=O)CC(C)C)CC[C@H]2CC[C@@H](C(=O)NC(c3ccccc3)c3ccccc3)N2C1=O [AT-406] | 3.10% | 48.32% | -2.44% | 53.25%
12 | CCC1=C[C@@H]2CN(C1)Cc1c([nH]c3ccccc13)[C@@](C(=O)OC)(c1cc3c(cc1OC)N(C)[C@H]1[C@@](O)(C(=O)OC)[C@H](OC(C)=O)[C@]4(CC)C=CCN5CC[C@]31[C@@H]54)C2 [Vinorelbine tartrate] | 35.58% | 33.32% | 36.10% | 34.14%
13 | CC[C@@]1(O)C(=O)OCc2c1cc1n(c2=O)Cc2cc3ccccc3nc2-1 [Camptothecin] | 4.52% | 47.66% | 4.34% | 49.89%
14 | Cc1cc(Nc2nc(N[C@@H](C)c3ncc(F)cn3)ncc2Cl)n[nH]1 [AZD1480] | -0.12% | 49.81% | 6.11% | 49.01%
15 | Nc1ncn([C@H]2C[C@H](O)[C@@H](CO)O2)c(=O)n1 [Decitabine (Dacogen)] | 4.17% | 47.83% | 0.31% | 51.89%
16 | NS(=O)(=O)OC[C@@H]1C[C@@H](n2ccc3c(N[C@H]4CCc5ccccc54)ncnc32)C[C@@H]1O [MLN4924] | 2.38% | 48.65% | -0.45% | 52.27%
17 | CCc1c2c(nc3ccc(OC(=O)N4CCC(N5CCCCC5)CC4)cc13)-c1cc3c(c(=O)n1C2)COC(=O)[C@]3(O)CC [Irinotecan] | 1.66% | 48.98% | -3.53% | 53.79%

Row | Compound | Plate 1 (% inhibition) | Plate 1 (% conversion) | Plate 1-duplicate (% inhibition) | Plate 1-duplicate (% conversion)
18 | COc1ccc(C2=N[C@@H](c3ccc(Cl)cc3)[C@@H](c3ccc(Cl)cc3)N2C(=O)N2CCNC(=O)C2)c(OC(C)C)c1 [Nutlin-3] | -13.27% | 55.88% | -5.84% | 54.94%
19 | O=P1(NCCCl)OCCCN1CCCl (stereo not drawn) [Ifosfamide] | 7.87% | 46.12% | 4.50% | 49.81%
20 | COc1ccc(S(=O)(=O)Nc2cccnc2Nc2ccc(O)cc2)cc1 [ABT-751] | 4.88% | 47.50% | 8.62% | 47.77%
21 | CCNC(=O)CCC/C=C\C[C@@H]1[C@@H](/C=C/[C@@H](O)CCc2ccccc2)[C@H](O)C[C@@H]1O [Bimatoprost] | -1.86% | 50.61% | -1.99% | 53.03%
22 | Cc1cnc(NC(=O)Nc2cc(Br)c(C)cc2OC[C@@H]2CNCCO2)cn1 [LY2603618_Rabusertib] | -51.46% | 73.51% | -47.27% | 75.48%
23 | C/C=C1\NC(=O)[C@H]2CSSCC/C=C/[C@H](CC(=O)N[C@H](C(C)C)C(=O)N2)OC(=O)[C@H](C(C)C)NC1=O [Romidepsin] | 31.77% | 35.08% | 29.51% | 37.41%
24 | CC(C)NC[C@@H](C(=O)N1CCN(c2ncnc3c2[C@H](C)C[C@H]3O)CC1)c1ccc(Cl)cc1 [GDC-0068] | -1.30% | 50.35% | 4.48% | 49.82%
25 | CCc1c(C(=O)C(N)=O)c2c(OCC(=O)O)cccc2n1Cc1ccccc1 [Varespladib] | 9.84% | 45.21% | 8.14% | 48.01%
26 | Nc1cccc2c1C(=O)N(C1CCC(=O)NC1=O)C2=O (stereo not drawn) [Pomalidomide] | 0.86% | 49.35% | 1.01% | 51.54%
27 | Clc1ccc(C(c2ccccc2Cl)C(Cl)Cl)cc1 (stereo not drawn) [Mitotane] | 14.44% | 43.08% | 17.86% | 43.18%
28 | Cc1cc(C(C)Nc2ccccc2)c2nc(N3CCOCC3)cc(=O)n2c1 (stereo not drawn) [TGX-221] | -1.55% | 50.47% | 0.18% | 51.95%
29 | CC(C)(C)c1nc(-c2cccc(NS(=O)(=O)c3c(F)cccc3F)c2F)c(-c2ccnc(N)n2)s1.CS(=O)(=O)O [Dabrafenib Mesylate] | 21.60% | 39.78% | 12.13% | 46.02%
30 | O=C(c1ccc(OCCN2CCCCC2)cc1)c1c(-c2ccc(O)cc2)sc2cc(O)ccc12 [Raloxifene] | 17.35% | 41.74% | 14.45% | 44.88%
31 | CN(C)CCN1C(=O)c2cccc3cc(N)cc(c23)C1=O [Amonafide] | 4.40% | 47.72% | 3.28% | 50.42%
32 | COc1c2occc2cc2ccc(=O)oc12 [Methoxsalen] | 0.45% | 49.54% | 1.60% | 51.25%
33 | CNC(=O)c1ccc(N2C(=S)N(c3ccc(C#N)c(C(F)(F)F)c3)C(=O)C2(C)C)cc1F [MDV3100_Enzaluamide] | -7.19% | 53.07% | -12.48% | 58.23%
